From ChEMBL document CHEMBL1150097, “Majapolene A, a cytotoxic peroxide, and related sesquiterpenes from the red alga Laurencia majuscula” (1995)

Experiment: Cytotoxicity against human NCI60 cells
Type: functional

`CC1(C)CC(C23C=CC(CO)(CC2)OO3)CCC1Br` (mixture of isomers) [MAJAPOLENE A] showed a GI50 of 400 nM, a TGI of 900 nM and a CC50 (read-out: LC50 (the source's name)) of 2800 nM.
